From patent publication US6737383B1, “Herbicidal oxadiazolidines” (priority 1999, dated 2004)

Experiments:
[1] = tested on: blackgrass; experiment: Test B pre/postemergence blackgrass; type: in vivo, Alopecurus myosuroides
Outline: (§1)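 Test chemicals in a non-phytotoxic solvent mixture with surfactant were sprayed preemergence onto planted seeds and postemergence onto plants 2 to 18 cm tall (1- to 4-leaf stage). After twelve to sixteen days in a greenhouse, injury was visually rated against untreated controls from 0 (no effect) to 10 (complete control).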

[2] = tested on: surinam grass; experiment: Test B pre/postemergence surinam grass; type: in vivo, Brachiaria decumbens
Outline: as §1

[3] = tested on: cocklebur; experiment: Test B pre/postemergence cocklebur; type: in vivo, Xanthium strumarium
Outline: as §1

[4] = tested on: corn; experiment: Test B pre/postemergence corn; type: in vivo, Zea mays
Outline: as §1

[5] = tested on: crabgrass; experiment: Test B pre/postemergence crabgrass; type: in vivo, Digitaria sanguinalis
Outline: as §1

[6] = tested on: giant foxtail; experiment: Test B pre/postemergence giant foxtail; type: in vivo, Setaria faberii
Outline: as §1

[7] = tested on: morningglory; experiment: Test B pre/postemergence morningglory; type: in vivo, Ipomoea hederacea
Outline: as §1

[8] = tested on: pigweed; experiment: Test B pre/postemergence pigweed; type: in vivo, Amaranthus retroflexus
Outline: as §1

[9] = tested on: rape; experiment: Test B pre/postemergence rape; type: in vivo, Brassica napus
Outline: as §1

[10] = tested on: sugar beet; experiment: Test B pre/postemergence sugar beet; type: in vivo, Beta vulgaris
Outline: as §1

[11] = tested on: velvetleaf; experiment: Test B pre/postemergence velvetleaf; type: in vivo, Abutilon theophrasti
Outline: as §1

[12] = tested on: wheat; experiment: Test B pre/postemergence wheat; type: in vivo, Triticum aestivum
Outline: as §1

[13] = tested on: purple nutsedge; experiment: Test B pre/postemergence purple nutsedge; type: in vivo, Cyperus rotundus
Outline: as §1

[14] = tested on: rice; experiment: Test B flood test rice; type: in vivo, Oryza sativa
Outline: (§2)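 Each value is a visual injury score relative to controls, with 10 meaning complete control and 0 no effect. Evaluation took place twelve to sixteen days after the 2-leaf-stage plants were treated and kept in the greenhouse.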

[15] = tested on: smallflower flatsedge; experiment: Test B flood test smallflower flatsedge; type: in vivo, Cyperus difformis
Outline: as §2

[16] = tested on: duck salad; experiment: Test B flood test duck salad; type: in vivo, Heteranthera limosa
Outline: as §2

[17] = Postemergence, Rate 250 g/ha, scale 0 to 10
[18] = Postemergence, Rate 500 g/ha, scale of 0 to 10 where 0 is no effect and 10 is complete control
[19] = Preemergence, Rate 62 g/ha, scale of 0 to 10 where 0 is no effect and 10 is complete control
[20] = Preemergence, Rate 125 g/ha, scale of 0 to 10 where 0 is no effect and 10 is complete control
[21] = Preemergence, Rate 250 g/ha, scale 0 to 10, 0 is no effect, 10 is complete control
[22] = Preemergence, Rate 500 g/ha, scale 0 to 10, 0 is no effect, 10 is complete control
[23] = Rate 62 g/ha, Postemergence, scale 0 to 10 (0 no effect, 10 complete control)
[24] = Rate 125 g/ha, Postemergence, scale 0 to 10, 0 is no effect, 10 is complete control
[25] = Rate 62 g/ha, flood test species, Pre-emergence, visual evaluation after twelve to sixteen days
[26] = Rate 125 g/ha, under heading Pre-emergence, flood test species, visual evaluation after twelve to sixteen days
[27] = Rate 250 g/ha, Pre-emergence (flood test species), scale 0 to 10, 0 is no effect, 10 is complete control
[28] = Rate 500 g/ha, Pre-emergence, flood test species, scale 0 to 10 (0 no effect, 10 complete control)

CC(C)N(C(=O)n1oc(=O)n(CCC#N)c1=O)c1ccc(Cl)cc1 [Compound 444]
Blackgrass plant response rating [1, 17]: 5
Blackgrass plant response rating [1, 18]: 7
Plant response rating, Blackgrass [1, 19]: 0
Plant response rating, Blackgrass [1, 20]: 0
Blackgrass plant response rating [1, 21]: 8
Blackgrass plant response rating [1, 22]: 8
Blackgrass plant response rating [1, 23]: 0
Blackgrass plant response rating [1, 24]: 2
B. signalgrass plant response rating ([2]; Postemergence, Rate 250 g/ha, scale 0 to 10, 0 no effect, 10 complete control): 4
B. signalgrass plant response rating [2, 18]: 4
Plant response rating, B. signalgrass [2, 19]: 0
Plant response rating, B. signalgrass [2, 20]: 0
B. signalgrass plant response rating [2, 21]: 1
B. signalgrass plant response rating [2, 22]: 8
B. signalgrass plant response rating [2, 23]: 0
B. signalgrass plant response rating [2, 24]: 0
Cocklebur plant response rating [3, 17]: 0
Cocklebur plant response rating [3, 18]: 0
Plant response rating, Cocklebur [3, 19]: 0
Plant response rating, Cocklebur [3, 20]: 0
Cocklebur plant response rating [3, 21]: 0
Cocklebur plant response rating [3, 22]: 0
Cocklebur plant response rating [3, 23]: 0
Cocklebur plant response rating [3, 24]: 0
Corn plant response rating [4, 17]: 0
Corn plant response rating [4, 18]: 0
Plant response rating, Corn [4, 19]: 0
Plant response rating, Corn [4, 20]: 0
Corn plant response rating [4, 21]: 0
Corn plant response rating [4, 22]: 0
Corn plant response rating [4, 23]: 0
Corn plant response rating [4, 24]: 0
Crabgrass plant response rating [5, 17]: 9
Crabgrass plant response rating [5, 18]: 9
Plant response rating, Crabgrass [5, 19]: 4
Plant response rating, Crabgrass [5, 20]: 5
Crabgrass plant response rating [5, 21]: 9
Crabgrass plant response rating [5, 22]: 10
Crabgrass plant response rating [5, 23]: 2
Crabgrass plant response rating [5, 24]: 2
Giant foxtail plant response rating [6, 17]: 8
Giant foxtail plant response rating [6, 18]: 9
Plant response rating, Giant foxtail [6, 19]: 9
Plant response rating, Giant foxtail [6, 20]: 9
Giant foxtail plant response rating [6, 21]: 10
Giant foxtail plant response rating [6, 22]: 10
Giant foxtail plant response rating [6, 23]: 4
Giant foxtail plant response rating [6, 24]: 7
Morningglory plant response rating [7, 17]: 1
Morningglory plant response rating [7, 18]: 3
Plant response rating, Morningglory [7, 19]: 0
Plant response rating, Morningglory [7, 20]: 0
Morningglory plant response rating [7, 21]: 0
Morningglory plant response rating [7, 22]: 0
Morningglory plant response rating [7, 23]: 0
Morningglory plant response rating [7, 24]: 0
Redroot pigweed plant response rating [8, 18]: 2
Plant response rating, Redroot pigweed [8, 19]: 10
Plant response rating, Redroot pigweed [8, 20]: 10
Redroot pigweed plant response rating [8, 21]: 10
Redroot pigweed plant response rating [8, 22]: 10
Redroot pigweed plant response rating [8, 23]: 0
Redroot pigweed plant response rating [8, 24]: 2
Rape plant response rating [9, 17]: 0
Rape plant response rating [9, 18]: 0
Plant response rating, Rape [9, 19]: 0
Plant response rating, Rape [9, 20]: 0
Rape plant response rating [9, 21]: 0
Rape plant response rating [9, 22]: 2
Rape plant response rating [9, 23]: 0
Rape plant response rating [9, 24]: 0
Sugarbeets plant response rating [10, 17]: 0
Sugarbeets plant response rating [10, 18]: 3
Plant response rating, Sugarbeets [10, 19]: 0
Plant response rating, Sugarbeets [10, 20]: 0
Sugarbeets plant response rating [10, 21]: 0
Sugarbeets plant response rating [10, 22]: 0
Sugarbeets plant response rating [10, 23]: 0
Sugarbeets plant response rating [10, 24]: 0
Velvetleaf plant response rating [11, 17]: 0
Velvetleaf plant response rating [11, 18]: 3
Plant response rating, Velvetleaf [11, 19]: 0
Plant response rating, Velvetleaf [11, 20]: 0
Velvetleaf plant response rating [11, 21]: 0
Velvetleaf plant response rating [11, 22]: 4
Velvetleaf plant response rating [11, 23]: 0
Velvetleaf plant response rating [11, 24]: 0
Wheat plant response rating [12, 17]: 0
Wheat plant response rating [12, 18]: 0
Plant response rating, Wheat [12, 19]: 0
Plant response rating, Wheat [12, 20]: 0
Wheat plant response rating [12, 21]: 0
Wheat plant response rating [12, 22]: 0
Wheat plant response rating [12, 23]: 0
Wheat plant response rating [12, 24]: 0
Nutsedge plant response rating [13, 17]: 0
Nutsedge plant response rating [13, 18]: 0
Plant response rating, Nutsedge [13, 19]: 0
Plant response rating, Nutsedge [13, 20]: 0
Nutsedge plant response rating [13, 21]: 0
Nutsedge plant response rating [13, 22]: 0
Nutsedge plant response rating [13, 23]: 0
Nutsedge plant response rating [13, 24]: 0
Plant response rating, Rice (0 to 10 scale, 0 is no effect, 10 is complete control) [14, 25]: 0
Rice plant response rating (0 to 10 scale, 0 is no effect, 10 is complete control) [14, 26]: 0
Rice plant response rating [14, 27]: 0
Rice plant response rating [14, 28]: 0
Plant response rating, S. Flatsedge (0 to 10 scale, 0 is no effect, 10 is complete control) [15, 25]: 0
S. Flatsedge plant response rating (0 to 10 scale, 0 is no effect, 10 is complete control) [15, 26]: 0
S. Flatsedge plant response rating [15, 27]: 0
S. Flatsedge plant response rating [15, 28]: 0
Plant response rating, Ducksalad (0 to 10 scale, 0 is no effect, 10 is complete control) [16, 25]: 0
Ducksalad plant response rating (0 to 10 scale, 0 is no effect, 10 is complete control) [16, 26]: 0
Ducksalad plant response rating [16, 27]: 0
Ducksalad plant response rating [16, 28]: 0
